According to patent US10179115B2, “Methods for treating malaria using potassium channel inhibitors” (THE CHILDREN'S MEDICAL CENTER CORPORATION, priority 2015, dated 2019):
Where two headings read alike, the source gives them in different places.

Columns and labels:
P. falciparum 3D7 [1] = assay: in vitro growth inhibition of P. falciparum 3D7 over one asexual cycle; type: cell-based; conditions: Plasmodium falciparum
Excerpt: This nonlinear regression curve is representative of seven assays, each performed in triplicate.

P. falciparum 7G8 = assay: in vitro growth inhibition of P. falciparum 7G8; type: cell-based; conditions: Plasmodium falciparum
P. falciparum W2mef = assay: microbe, parasite or virus in culture; type: cell-based; conditions: Plasmodium falciparum; for IC50: read-out: IC50 (mean ± 95% confidence interval)
P. knowlesi H1 = assay: in vitro growth inhibition of P. knowlesi H1 cultured in rhesus erythrocytes; type: cell-based; conditions: Plasmodium knowlesi, Erythrocyte, in Macaca mulatta
Excerpt: (§1) To identify a relationship between senicapoc activity and human erythrocytes, P. knowlesi H1 cultured in rhesus erythrocytes and P. knowlesi YH-1 adapted for culture in human erythrocytes were each treated with senicapoc. There was no difference between the senicapoc IC50s for H1 and YH-1 (P=0.14) (Table 1). Senicapoc was similarly effective against parasitized human and rhesus erythrocytes.

P. knowlesi YH-1 = assay: in vitro growth inhibition of P. knowlesi YH-1 adapted for culture in human erythrocytes; type: cell-based; conditions: Plasmodium knowlesi, Erythrocyte
Excerpt: as §1

human Plasmodium strains = assay: in vitro growth inhibition, all human Plasmodium strains tested; type: cell-based
P. falciparum 3D7 [2] = assay: growth inhibition through the 48-hour asexual blood stage by microscopy and flow cytometry; type: cell-based, Plasmodium falciparum; conditions: P<0.008
Procedure: Parasitemia was determined by flow cytometry and confirmed with microscopy (not shown). […] Data presented are representative of three replicates.
Mean fluorescence intensity (WI), determined by flow cytometry, is shown as a measure of parasite viability. […] The data point for “No drug” at 48 h was gated for schizonts only (20% of infected cells) to eliminate signal from reinvaded ring-stage parasites. Data for other time points were not gated, as schizonts represented 5% of infected cells.
To determine senicapoc's activity through the 48-hour asexual blood stage of the parasite, growth inhibition of P. falciparum 3D7 was characterized throughout the cycle by microscopy and flow cytometry.

P. yoelii 17X-NL = assay: in vivo efficacy against blood-stage parasites in infected C57BL/6 mice
Procedure: C57BL/6 mice infected with P. yoelii 17X-NL were treated by gavage with vehicle or senicapoc 400 or 800 mg/kg daily from days 2 to 10 post-infection (highlighted area) to mimic a preventive therapy.
FIG. 7 is a line graph showing senicapoc suppressed parasite growth in an in vivo murine model following established infection. C57BL/6 mice infected with P. yoelii 17X-NL were treated with vehicle or senicapoc 400 mg/kg twice daily from day 8 to day 15 postinfection (highlighted area) to mimic treatment of an active infection.
To establish in vivo efficacy against blood-stage parasites, C57BL/6 mice infected with P. yoelii 17X-NL (nonlethal strain) were treated with vehicle or senicapoc. […] Parasitemia increased after the drug was stopped (FIG. 6).

P. yoelii = type: in vivo; conditions: IK-1-/- mice, 400 mg/kg twice daily, days 8 to 15
Procedure: IK-1^−/− and IK-1^+/+ mice were treated with senicapoc twice daily on postinoculation days 8 to 15 (highlighted area).
To test whether senicapoc targets the Gardos channel in malaria-infected erythrocytes, we assessed the ability of P. yoe-lii to grow in the presence and absence of the channel in vivo using a Gardos knockout (IK-1^−/−) mouse model (Shmukler B E, Hsu A, Alves J, Trudel M, Rust M B, Hubner C A, Rivera A, Alper S L. 2013. N-ethylmaleimide activates a Cl(−)-independent component of K(+) flux in mouse erythrocytes. Blood Cells Mol Dis 51:9-16 and Rifler M, Bobbala D, Koka S, Boini K M, Mahmud H, Kasinathan R S, Shumilina E, Amann K, Beranek G, Sausbier U, Ruth P, Sausbier M, Lang F, Huber S M. 2010. […] The inventors then assessed the effectiveness of senicapoc in the presence and absence of the channel in vivo. P. yoelii-infected IK-1^−/− and IK-1^+/+ mice were treated with senicapoc 400 mg/kg twice daily.

[3] = patients with sickle cell disease; cited from earlier work
[4] = primates, daily doses of 1,000 mg/kg for 9 months; cited from earlier work
[5] = canines; cited from earlier work
[6] = cited from earlier work
[7] = patients with SCD; cited from earlier work
[8] = human and animal studies for SCD; cited from earlier work
[9] = P. falciparum 3D7, read-out: IC50 (mean ± 95% confidence interval)
[10] = P. falciparum 7G8, Res CQ, read-out: IC50 (mean ± 95% confidence interval)
[11] = read-out: IC90 (mean ± 95% confidence interval)
[12] = read-out: IC50 (mean ± 95% confidence interval)

Structure (SMILES): CCN(CC)CCCC(C)Nc1ccnc2cc(Cl)ccc12 (stereo not drawn) [CQ, chloroquine]
- IC50 (P. falciparum 3D7 [1]; 3D7, read-out: IC50 (mean ± 95% confidence interval)): 0.0156 ± 0.00331 µM
- IC50 (P. falciparum 7G8; 7G8, read-out: IC50 (mean ± 95% confidence interval)): 0.0979 ± 0.0204 µM
- IC50 (P. falciparum W2mef): 0.316 ± 0.135 µM

Structure (SMILES): C[C@H]1[C@@H](O)O[C@@H]2O[C@@]3(C)CC[C@H]4[C@H](C)CC[C@@H]1[C@@]24OO3 [DHA, dihydroartemisinin]
- IC50 (P. falciparum 3D7 [1]; [9]): 0.00273 ± 0.00155 µM
- IC50 (P. falciparum 7G8; [10]): 0.00165 ± 0.00124 µM
- IC50 (P. falciparum W2mef): 0.00516 ± 0.00428 µM

Structure (SMILES): OC(c1cc(C(F)(F)F)nc2c(C(F)(F)F)cccc12)C1CCCCN1 (stereo not drawn) [MQ, mefloquine]
- IC50 (P. falciparum 3D7 [1]; [9]): 0.0101 ± 0.00783 µM
- IC50 (P. falciparum 7G8; [10]): 0.00363 ± 0.00058 µM
- IC50 (P. falciparum W2mef): 0.0267 ± 0.0155 µM

Structure (SMILES): NC(=O)C(c1ccccc1)(c1ccc(F)cc1)c1ccc(F)cc1 [senicapoc, 2,2-bis(4-fluorophenyl)-2-phenylacetamide]
- IC50 (P. falciparum 3D7 [1]; [9]): 6.74 ± 0.25 µM
- IC90 (P. falciparum 3D7 [1]; P. falciparum 3D7, read-out: IC90 (mean ± 95% confidence interval)): 10.2 ± 2.07 µM
- IC50 (P. falciparum 3D7 [1]; blood-stage P. falciparum 3D7, FIG. 1, read-out: IC50): 6.7 µM
- IC50 (P. falciparum 7G8; [10]): 10.9 ± 2.3 µM
- IC90 (P. falciparum 7G8; P. falciparum 7G8, Res CQ, read-out: IC90 (mean ± 95% confidence interval)): 22.3 ± 9.52 µM
- IC50 (P. falciparum W2mef): 9.24 ± 3.13 µM
- IC90 (P. falciparum W2mef; [11]): 12.3 ± 1.82 µM
- IC50 (P. knowlesi H1; [12]): 17.5 ± 6.74 µM
- IC90 (P. knowlesi H1; [11]): 31.4 ± 11.8 µM
- IC50 (P. knowlesi YH-1; [12]): 11 ± 1.38 µM
- IC90 (P. knowlesi YH-1; [11]): 37.4 ± 1.19 µM
- IC90 higher than the IC50 (human Plasmodium strains): < 2 fold
- Nucleic acid content measured by mean fluorescence intensity (MFI) (P. falciparum 3D7 [2]; at 36 h, treated cultures): weaker
- Parasitemia measured by flow cytometry (P. falciparum 3D7 [2]; by 48 h postinvasion, treated cultures compared to control): reduced
- parasitemia (P. yoelii 17X-NL; prophylaxis on postinoculation days 2 to 10, by day 10, vehicle 12%, P=0.04): 4.3%
- parasitemia (P. yoelii 17X-NL; treatment 400 mg/kg twice daily on postinoculation days 8 to 15, beyond day 13, not statistically significant (P=0.058)): lower parasitemia
- activity against P. yoelii (P. yoelii): active
- peak concentrations achieved in human trials [3]: 337 nM
- tolerability [4]: well tolerated
- serum concentrations at which cardiotoxicity developed [5]: exceeded 18 M
- protein binding [6]: highly protein bound
- frequency of vasoocclusive pain episodes [7]: failed to modify
- physiological disease markers [7]: improved
- tolerability [8]: well tolerated
